Values quoted from earlier work in patent US20130266625A1 (YISSUM RESEARCH DEVELOPMENT COMPANY OF THE HEBREW …, priority 2011, published 2013).

Tests used:
[1] = test system: procollagen alpha1 (I), MMP-1 and TIMP-1 expression in skin; conditions: 5% in ethanol:olive oil (1:2), 12 times over 4 weeks
[2] = test system: cultured dermal fibroblasts
[3] = 50 mg/day over one year

C[C@]12CC[C@H](O)CC1=CC[C@@H]1[C@@H]2CC[C@]2(C)C(=O)CC[C@@H]12 [DHEA, dehydroepiandrosterone]
basal expression of MMP-1 mRNA and protein [1]: significantly decreased
expression of procollagen alpha1 (I) mRNA and protein ([1]; aged and young skin): significantly increase
expression of TIMP-1 protein ([1]; aged skin): increased
matrix metalloproteinase (MMP)-1 synthesis [2]: decreasing
procollagen synthesis [2]: increase procollagen synthesis
tissue inhibitor of matrix metalloprotease (TIMP-1) production [2]: increasing
harmful consequences [3]: no harmful consequences were observed
skin status (hydration, epidermal thickness, sebum production, skin pigmentation) ([3]; individuals aged 60 years and over): improvement of the skin status
